Legend:
RSK2 (h) = RSK2 (h) (Homo sapiens, UniProt P51812); experiment: CEREP Kinase Selectivity Panel; assay type: biochemical; details: 10 μM lamellarin N
PKCγ (h) = PKCγ (h) (Homo sapiens, UniProt P05129); experiment: CEREP Kinase Selectivity Panel; assay type: biochemical; details: 10 μM lamellarin N
Abl kinase (h) = Abl kinase (h) (Homo sapiens, UniProt P00519); experiment: CEREP Kinase Selectivity Panel; assay type: biochemical; details: 10 μM lamellarin N
DYRK1A = DYRK1A (Rattus norvegicus, UniProt Q63470); experiment: DYRK1A kinase assay (myelin basic protein)
Method: (§1) Blank values were subtracted and activities calculated as pmoles of phosphate incorporated during a 30 min. incubation. The activities were expressed in % of the maximal activity, i.e. in the absence of inhibitors. Controls were performed with appropriate dilutions of dimethylsulfoxide. Unless otherwise stated, the P81 phosphocellulose assay was used.
DYRK1A was expressed as a GST fusion protein in E. coli (vector kindly provided by Dr. W. Becker, Institute for Pharmacology and Toxicology, Aachen, Germany) and affinity purified on glutathione-agarose. […] ATP in a final volume of 30 μl. After 30 min incubation at 30°C, 25 μl aliquots of supernatant were treated as described above.

[1] = system: CDK1/cyclin B, CDK5/p25, GSK-3α/ß, PIM-1, DYRK1A, CK1; experiment: Kinase assay panel, structure/activity comparison; assay type: biochemical; details: transposition of substitutions at R3 and R4 of lamellarin D
Method: All compounds were run on our kinase assay panel comprising CDK1/cyclin B, CDK5/p25, GSK-3α/ß, PIM-1, DYRK1A, CK1.
Kinase activities were assayed in buffer A (10 mM MgCl2, 1 mM EGTA, 1 mM DTT, 25 mM Tris-HCl pH 7.5, 50 μg heparin/ml) or C (60 mM β-glycerophosphate, 15 mM p-nitrophenyl phosphate, 25 mM MOPS (pH 7.2), 5 mM EGTA, 15 mM MgCl2, 1 mM dithiothreitol, 1 mM sodium vanadate, 1 mM phenylphosphate, 0.1 % Nonidet P-40), at 30°C, at a final ATP concentration of 15 μM. Blank values were subtracted and activities calculated as pmoles of phosphate incorporated during a 30 min. incubation. The activities were expressed in % of the maximal activity, i.e. in the absence of inhibitors. Controls were performed with appropriate dilutions of dimethylsulfoxide. Unless otherwise stated, the P81 phosphocellulose assay was used.

FLT-3 kinase (h) = FLT-3 kinase (h) (Homo sapiens, UniProt P36888); experiment: CEREP Kinase Selectivity Panel; assay type: biochemical; details: 10 μM lamellarin N
PIM 1 = PIM 1 (Homo sapiens, UniProt P11309); experiment: PIM1 kinase assay (histone H1); assay type: biochemical
CDK1/cyclin B = CDK1/cyclin B kinase assay (histone H1, P81 phosphocellulose); assay type: biochemical, starfish (Marthasterias glacialis); details: 15 μM ATP; cell '− (x)' = no inhibitory activity detected, x = highest concentration tested
Method: ATP (3,000 Ci/mmol; 1 mCi/ml) in a final volume of 30 μl. […] The wet filters were counted in the presence of 1 ml ACS (Amersham) scintillation fluid.

FGFR2 kinase (h) = FGFR2 kinase (h) (Homo sapiens, UniProt P21802); experiment: CEREP Kinase Selectivity Panel; assay type: biochemical; details: 10 μM lamellarin N
Akt1/PKB α (h) = Akt1/PKB α (h) (Homo sapiens, UniProt P31749); experiment: CEREP Kinase Selectivity Panel; assay type: biochemical; details: 10 μM lamellarin N
Src kinase (h) = Src kinase (h) (Homo sapiens, UniProt P12931); experiment: CEREP Kinase Selectivity Panel; assay type: biochemical; details: 10 μM lamellarin N
IGF1R kinase (h) = IGF1R kinase (h) (Homo sapiens, UniProt P08069); experiment: CEREP Kinase Selectivity Panel; assay type: biochemical; details: 10 μM lamellarin N
Brk (h) = Brk (h) (Homo sapiens, UniProt Q13882); experiment: CEREP Kinase Selectivity Panel; assay type: biochemical; details: 10 μM lamellarin N
[2] = system: PARP, p53, p21^CIP1, Mcl-1 in SH-SY5Y cells; assay type: cell-based, human
Method: SH-SY5Y cells treated at time 0 with 1 μM lamellarin N. Cells were harvested at different time-points and protein extracted for SDS-PAGE followed by Western blot analysis using antibodies directed against PARP, p53, p21^CIP1, or Mcl-1, as described in the materials and methods section. β-actin was used as loading control. “Ctrl” denoted untreated sample after 10 hours.
At given time points and lamellarin doses, SH-SY5Y cells were harvested in phosphate buffered saline (PBS) with commercially available protease inhibitors (Roche, 11836145001). Cells were homogenized by sonication in homogenization buffer supplemented with 0.1% NP-40 and protease inhibitors. The homogenization buffer consist of: 25mM MOPS, 15mM EGTA, 15mM MgCl2, 1mM sodium orthovanadate, 1mM sodium fluoride, 60mM β-glycerophosphate, 2mM DTT, 15mM p-nitrophenylphosphate, and 1mM phenyl phosphate-di-sodium salt (all reagents supplied by Sigma). Sonication retrieved proteins. Cellular proteins were subjected to electrophoresis in SDS 10% polyacrylamide gels and transferred to a PVDF membrane (Invitrogen). Membranes were incubated with primary antibodies directed against p53 (Santa Cruz Biotech, sc-263) (1:1000), p21^CIP1 (Calbiochem, OP64) (1:1000) or poly (ADP-ribose) polymerase (PARP) (Santa Cruz Biotech, sc-7150) (1:500). Appropriate secondary antibodies conjugated to horseradish peroxidase (Biorad) were added to visualize the proteins using the ECL detection system.

Fyn kinase (h) = Fyn kinase (h) (Homo sapiens, UniProt P06241); experiment: CEREP Kinase Selectivity Panel; assay type: biochemical; details: 10 μM lamellarin N
p38δ kinase (h) = p38δ kinase (h) (Homo sapiens, UniProt O15264); experiment: CEREP Kinase Selectivity Panel; assay type: biochemical; details: 10 μM lamellarin N
CDK5/p25 = CDK5/p25 (Homo sapiens, UniProt Q00535); experiment: CDK5/p25 kinase assay (histone H1)
Method: as §1
Its activity was assayed with histone H1 in buffer C as described for CDK1/cyclin B.

p38α kinase (h) = p38α kinase (h) (Homo sapiens, UniProt Q16539); experiment: CEREP Kinase Selectivity Panel; assay type: biochemical; details: 10 μM lamellarin N
c-Met kinase (h) = c-Met kinase (h) (Homo sapiens, UniProt P08581); experiment: CEREP Kinase Selectivity Panel; assay type: biochemical; details: 10 μM lamellarin N
[3] = target: FLT-1 kinase (h) (VEGFR1) (Homo sapiens, UniProt P17948); experiment: CEREP Kinase Selectivity Panel; assay type: biochemical; details: 10 μM lamellarin N
CaMK4 (h) = CaMK4 (h) (Homo sapiens, UniProt Q16566); experiment: CEREP Kinase Selectivity Panel; assay type: biochemical; details: 10 μM lamellarin N
PKCα (h) = PKCα (h) (Homo sapiens, UniProt P17252); experiment: CEREP Kinase Selectivity Panel; assay type: biochemical; details: 10 μM lamellarin N
Lck kinase (h) = Lck kinase (h) (Homo sapiens, UniProt P06239); experiment: CEREP Kinase Selectivity Panel; assay type: biochemical; details: 10 μM lamellarin N
JNK 2 (h) = JNK 2 (h) (Homo sapiens, UniProt P45984); experiment: CEREP Kinase Selectivity Panel; assay type: biochemical; details: 10 μM lamellarin N
CaMK2α (h) = CaMK2α (h) (Homo sapiens, UniProt Q9UQM7); experiment: CEREP Kinase Selectivity Panel; assay type: biochemical; details: 10 μM lamellarin N
PDK1 (h) = PDK1 (h) (Homo sapiens, UniProt O15530); experiment: CEREP Kinase Selectivity Panel; assay type: biochemical; details: 10 μM lamellarin N
MEK1/MAP2K1 (h) = MEK1/MAP2K1 (h) (Homo sapiens, UniProt Q02750); experiment: CEREP Kinase Selectivity Panel; assay type: biochemical; details: 10 μM lamellarin N
Lyn kinase (h) = Lyn kinase (h) (Homo sapiens, UniProt P07948); experiment: CEREP Kinase Selectivity Panel; assay type: biochemical; details: 10 μM lamellarin N
PKCβ 1 (h) = PKCβ 1 (h) (Homo sapiens, UniProt P05771); experiment: CEREP Kinase Selectivity Panel; assay type: biochemical; details: 10 μM lamellarin N
TRKA (h) = TRKA (h) (Homo sapiens, UniProt P04629); experiment: CEREP Kinase Selectivity Panel; assay type: biochemical; details: 10 μM lamellarin N
MAPKAPK2 (h) = MAPKAPK2 (h) (Homo sapiens, UniProt P49137); experiment: CEREP Kinase Selectivity Panel; assay type: biochemical; details: 10 μM lamellarin N
CSK (h) = CSK (h) (Homo sapiens, UniProt P41240); experiment: CEREP Kinase Selectivity Panel; assay type: biochemical; details: 10 μM lamellarin N
CDK2 (h) (cycE) = CDK2 (h) (cycE) (Homo sapiens, UniProt P24941); experiment: CEREP Kinase Selectivity Panel; assay type: biochemical; details: 10 μM lamellarin N
GSK-3α/ß = experiment: GSK-3α/β kinase assay (GS-1 substrate); assay type: biochemical, porcine; details: 15 μM ATP; cell '− (x)' = no inhibitory activity detected, x = highest concentration tested
Text: GSK-3 α/β was purified from porcine brain by affinity chromatography on immobilized axin [39].

p38γ kinase (h) = p38γ kinase (h) (Homo sapiens, UniProt P53778); experiment: CEREP Kinase Selectivity Panel; assay type: biochemical; details: 10 μM lamellarin N
EphB4 kinase (h) = EphB4 kinase (h) (Homo sapiens, UniProt P54760); experiment: CEREP Kinase Selectivity Panel; assay type: biochemical; details: 10 μM lamellarin N
Ret kinase (h) = Ret kinase (h) (Homo sapiens, UniProt P07949); experiment: CEREP Kinase Selectivity Panel; assay type: biochemical; details: 10 μM lamellarin N
Syk (h) = Syk (h) (Homo sapiens, UniProt P43405); experiment: CEREP Kinase Selectivity Panel; assay type: biochemical; details: 10 μM lamellarin N
PDGFRβ kinase (h) = PDGFRβ kinase (h) (Homo sapiens, UniProt P09619); experiment: CEREP Kinase Selectivity Panel; assay type: biochemical; details: 10 μM lamellarin N
PDGFRβ kinase (h), sequence (P09619 33-1106): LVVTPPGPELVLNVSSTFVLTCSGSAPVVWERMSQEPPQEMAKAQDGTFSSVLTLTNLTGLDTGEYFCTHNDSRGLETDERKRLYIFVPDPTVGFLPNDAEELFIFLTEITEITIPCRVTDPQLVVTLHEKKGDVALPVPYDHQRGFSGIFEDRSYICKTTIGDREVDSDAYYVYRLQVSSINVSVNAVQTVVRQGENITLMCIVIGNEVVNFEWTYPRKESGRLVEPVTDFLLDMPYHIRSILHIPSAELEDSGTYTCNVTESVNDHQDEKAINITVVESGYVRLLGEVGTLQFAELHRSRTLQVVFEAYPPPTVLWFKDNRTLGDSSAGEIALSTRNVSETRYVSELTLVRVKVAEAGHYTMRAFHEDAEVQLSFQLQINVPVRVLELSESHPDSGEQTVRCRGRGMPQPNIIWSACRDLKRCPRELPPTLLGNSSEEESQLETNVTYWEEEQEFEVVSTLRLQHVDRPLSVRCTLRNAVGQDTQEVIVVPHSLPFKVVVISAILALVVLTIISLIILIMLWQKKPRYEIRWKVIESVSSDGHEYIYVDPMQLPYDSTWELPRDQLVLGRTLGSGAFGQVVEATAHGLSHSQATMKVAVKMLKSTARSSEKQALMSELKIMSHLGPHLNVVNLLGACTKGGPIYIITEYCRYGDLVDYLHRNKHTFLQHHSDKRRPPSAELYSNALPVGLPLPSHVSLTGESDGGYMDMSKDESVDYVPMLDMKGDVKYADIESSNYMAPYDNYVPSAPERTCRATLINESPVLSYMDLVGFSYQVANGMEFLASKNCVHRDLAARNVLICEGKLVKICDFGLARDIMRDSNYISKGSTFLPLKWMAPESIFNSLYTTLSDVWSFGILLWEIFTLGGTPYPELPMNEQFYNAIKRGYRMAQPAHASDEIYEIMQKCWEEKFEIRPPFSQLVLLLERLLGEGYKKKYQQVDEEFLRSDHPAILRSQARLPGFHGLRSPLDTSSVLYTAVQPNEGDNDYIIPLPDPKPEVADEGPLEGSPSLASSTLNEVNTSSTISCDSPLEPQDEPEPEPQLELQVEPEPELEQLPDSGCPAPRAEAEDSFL

Lyn kinase (h), sequence (P07948 whole entry): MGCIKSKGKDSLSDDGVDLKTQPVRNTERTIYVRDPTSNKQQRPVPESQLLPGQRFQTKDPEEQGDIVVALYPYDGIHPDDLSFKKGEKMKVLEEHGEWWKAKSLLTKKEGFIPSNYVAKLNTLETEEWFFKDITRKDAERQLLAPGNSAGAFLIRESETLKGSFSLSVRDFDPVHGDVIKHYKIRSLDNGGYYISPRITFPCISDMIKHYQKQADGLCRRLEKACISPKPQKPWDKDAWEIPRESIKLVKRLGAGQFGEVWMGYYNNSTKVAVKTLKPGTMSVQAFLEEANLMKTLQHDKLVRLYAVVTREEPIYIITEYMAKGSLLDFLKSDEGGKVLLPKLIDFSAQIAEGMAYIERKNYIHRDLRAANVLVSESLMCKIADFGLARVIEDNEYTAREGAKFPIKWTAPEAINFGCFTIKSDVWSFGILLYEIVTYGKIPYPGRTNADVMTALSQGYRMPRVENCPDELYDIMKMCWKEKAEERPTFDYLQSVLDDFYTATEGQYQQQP
c-Met kinase (h), sequence (P08581 25-1390): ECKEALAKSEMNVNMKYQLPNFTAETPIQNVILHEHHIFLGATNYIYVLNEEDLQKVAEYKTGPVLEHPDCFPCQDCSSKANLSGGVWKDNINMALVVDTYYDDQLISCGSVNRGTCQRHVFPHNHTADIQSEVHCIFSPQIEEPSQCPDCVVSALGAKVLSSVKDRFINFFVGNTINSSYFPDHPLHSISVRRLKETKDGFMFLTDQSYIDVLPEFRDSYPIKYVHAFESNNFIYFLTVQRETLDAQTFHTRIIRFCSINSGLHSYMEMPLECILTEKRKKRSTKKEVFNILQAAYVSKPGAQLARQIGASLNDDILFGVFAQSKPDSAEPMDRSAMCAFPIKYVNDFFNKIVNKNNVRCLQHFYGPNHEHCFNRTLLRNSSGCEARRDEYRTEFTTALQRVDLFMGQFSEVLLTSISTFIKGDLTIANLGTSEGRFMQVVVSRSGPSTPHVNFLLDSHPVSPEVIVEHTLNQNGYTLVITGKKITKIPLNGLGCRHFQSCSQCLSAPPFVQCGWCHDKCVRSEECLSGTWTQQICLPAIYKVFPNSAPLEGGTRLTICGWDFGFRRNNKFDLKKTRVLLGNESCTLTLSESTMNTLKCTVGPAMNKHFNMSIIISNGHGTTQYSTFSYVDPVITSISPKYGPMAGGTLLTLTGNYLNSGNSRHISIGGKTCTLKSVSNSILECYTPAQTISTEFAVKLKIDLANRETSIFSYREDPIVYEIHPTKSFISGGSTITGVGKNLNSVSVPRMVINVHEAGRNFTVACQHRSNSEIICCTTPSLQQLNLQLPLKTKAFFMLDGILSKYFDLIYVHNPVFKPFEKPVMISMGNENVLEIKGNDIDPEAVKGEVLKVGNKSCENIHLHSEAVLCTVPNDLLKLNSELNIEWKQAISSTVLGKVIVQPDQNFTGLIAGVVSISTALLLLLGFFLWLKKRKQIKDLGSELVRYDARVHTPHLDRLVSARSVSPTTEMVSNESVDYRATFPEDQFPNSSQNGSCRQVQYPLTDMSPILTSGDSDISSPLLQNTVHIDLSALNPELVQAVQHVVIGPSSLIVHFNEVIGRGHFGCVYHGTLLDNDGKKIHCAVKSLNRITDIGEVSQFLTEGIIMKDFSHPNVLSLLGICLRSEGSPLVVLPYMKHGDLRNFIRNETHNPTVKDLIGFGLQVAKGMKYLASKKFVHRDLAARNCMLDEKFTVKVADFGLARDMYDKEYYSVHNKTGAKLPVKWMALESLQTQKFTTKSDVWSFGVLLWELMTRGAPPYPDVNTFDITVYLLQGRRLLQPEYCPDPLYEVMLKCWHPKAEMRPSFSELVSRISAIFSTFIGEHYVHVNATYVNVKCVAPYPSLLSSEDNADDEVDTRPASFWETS
JNK 2 (h), sequence (P45984 whole entry): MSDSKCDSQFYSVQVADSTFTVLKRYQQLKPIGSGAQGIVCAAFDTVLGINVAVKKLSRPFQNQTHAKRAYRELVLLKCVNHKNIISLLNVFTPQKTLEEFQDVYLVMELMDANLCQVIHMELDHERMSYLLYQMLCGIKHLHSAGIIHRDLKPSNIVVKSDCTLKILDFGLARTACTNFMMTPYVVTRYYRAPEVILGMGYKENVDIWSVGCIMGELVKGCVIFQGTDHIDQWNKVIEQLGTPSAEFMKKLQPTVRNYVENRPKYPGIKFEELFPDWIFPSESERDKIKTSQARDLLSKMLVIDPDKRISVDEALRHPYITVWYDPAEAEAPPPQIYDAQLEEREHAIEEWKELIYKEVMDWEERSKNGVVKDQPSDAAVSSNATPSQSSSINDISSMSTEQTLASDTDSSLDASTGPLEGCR
Lck kinase (h), sequence (P06239 whole entry): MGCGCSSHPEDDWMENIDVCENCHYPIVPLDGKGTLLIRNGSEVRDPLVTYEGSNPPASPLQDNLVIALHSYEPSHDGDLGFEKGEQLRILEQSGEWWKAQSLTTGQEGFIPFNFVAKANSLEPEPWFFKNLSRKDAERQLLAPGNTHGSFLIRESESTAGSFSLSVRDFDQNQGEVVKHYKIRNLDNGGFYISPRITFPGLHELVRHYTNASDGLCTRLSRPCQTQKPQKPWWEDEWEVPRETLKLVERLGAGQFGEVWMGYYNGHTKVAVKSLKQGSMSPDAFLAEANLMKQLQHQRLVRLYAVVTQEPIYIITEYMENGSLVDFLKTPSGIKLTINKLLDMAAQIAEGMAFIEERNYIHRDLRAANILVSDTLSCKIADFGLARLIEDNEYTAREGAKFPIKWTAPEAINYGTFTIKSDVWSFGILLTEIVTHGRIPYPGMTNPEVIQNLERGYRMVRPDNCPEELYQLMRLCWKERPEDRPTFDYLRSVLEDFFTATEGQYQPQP
MEK1/MAP2K1 (h), sequence (Q02750 whole entry): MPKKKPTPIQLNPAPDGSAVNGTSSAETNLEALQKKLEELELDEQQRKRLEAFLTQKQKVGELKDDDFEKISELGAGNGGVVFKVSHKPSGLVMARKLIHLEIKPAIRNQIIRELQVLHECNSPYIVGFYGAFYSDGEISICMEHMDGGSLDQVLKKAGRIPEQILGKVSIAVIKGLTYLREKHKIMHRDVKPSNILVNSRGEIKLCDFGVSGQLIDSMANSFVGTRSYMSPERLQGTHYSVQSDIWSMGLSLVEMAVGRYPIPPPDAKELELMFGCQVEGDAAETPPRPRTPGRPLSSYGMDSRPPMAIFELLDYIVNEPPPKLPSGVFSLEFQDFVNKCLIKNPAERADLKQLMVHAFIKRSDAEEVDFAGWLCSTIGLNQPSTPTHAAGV

COc1ccc(-c2c3c4cc(OC)c(O)cc4oc(=O)c3n3ccc4cc(O)c(OC)cc4c23)cc1O [Compound 6, lamellarin N] was tested, and the “Activity (% of control)” value (RSK2 (h)) was 44.5 % of control, the “Activity (% of control)” value (PKCγ (h)) was 94.1 % of control and the “Activity (% of control)” value (Abl kinase (h)) was 61.4 % of control. The IC50 (DYRK1A) was 35 nM, the “enhancement of kinase inhibitory activity relative to lamellarin D” value [1] was 10 fold and the “Activity (% of control)” value (FLT-3 kinase (h)) was 0.4 % of control. For the same molecule, the IC50 (PIM 1) was 55 nM, the IC50 (CDK1/cyclin B) was 70 nM and the “Activity (% of control)” value (FGFR2 kinase (h)) was 19.8 % of control. The “Activity (% of control)” value (Akt1/PKB α (h)) was 104.6 % of control, the “Activity (% of control)” value (Src kinase (h)) was 56.2 % of control and the “Activity (% of control)” value (IGF1R kinase (h)) was 87.2 % of control. The “Activity (% of control)” value (Brk (h)) was 72.8 % of control, the “effect on survival factor Mcl-1 expression” value [2] was “not down-regulated” and the “lowest concentration inducing PARP cleavage and p53 and p21 expression” value [2] was 0.1 µM. The “time at which induction of PARP cleavage and p53 and p21 expression already takes place” value [2] was at most 6 h, the “Activity (% of control)” value (Fyn kinase (h)) was 20.1 % of control and the “Activity (% of control)” value (p38δ kinase (h)) was 96.0 % of control. For the same molecule, the IC50 (CDK5/p25) was 25 nM, the “Activity (% of control)” value (p38α kinase (h)) was 97.4 % of control and the “Activity (% of control)” value (c-Met kinase (h)) was 92.1 % of control. For the same molecule, the “Activity (% of control)” value [3] was 4.0 % of control, the “Activity (% of control)” value (CaMK4 (h)) was 89.9 % of control and the “Activity (% of control)” value (PKCα (h)) was 91.7 % of control. For the same molecule, the “Activity (% of control)” value (Lck kinase (h)) was 7.1 % of control, the “Activity (% of control)” value (JNK 2 (h)) was 15.7 % of control and the “Activity (% of control)” value (CaMK2α (h)) was 38.2 % of control. For the same molecule, the “Activity (% of control)” value (PDK1 (h)) was 89.8 % of control, the “Activity (% of control)” value (MEK1/MAP2K1 (h)) was 81.5 % of control and the “Activity (% of control)” value (Lyn kinase (h)) was 7.2 % of control. For the same molecule, the “Activity (% of control)” value (PKCβ 1 (h)) was 102.0 % of control, the “Activity (% of control)” value (TRKA (h)) was 0.8 % of control and the “Activity (% of control)” value (MAPKAPK2 (h)) was 96.6 % of control. For the same molecule, the “Activity (% of control)” value (CSK (h)) was 47.4 % of control, the “Activity (% of control)” value (CDK2 (h) (cycE)) was 57.1 % of control and the IC50 (GSK-3α/ß) was 5 nM. The “Activity (% of control)” value (p38γ kinase (h)) was 79.6 % of control, the “Activity (% of control)” value (EphB4 kinase (h)) was 89.7 % of control and the “Activity (% of control)” value (Ret kinase (h)) was 1.8 % of control. The “Activity (% of control)” value (Syk (h)) was 97.1 % of control and the “Activity (% of control)” value (PDGFRβ kinase (h)) was 1.8 % of control.

Source: article PMC2630805, “Anticancer Alkaloid Lamellarins Inhibit Protein Kinases” (Marine Drugs, 2008)
